# Columns and labels:
# brain blood flow = settings: humans exposed to nerol and geraniol (aroma components of lemongrass extract); cited from earlier work
# EEG = experiment: Reference Example: EEG test in the same manner as in Test Example 4; assay type: in vivo, human (healthy Japanese men and women, 20 to 39 years old); settings: 10-ppm aqueous solution, same manner as Test Example 4 (EEG), 20 subjects
# Protocol: Each subject was instructed to wear an electroencephalograph (model number: HARU-2, manufactured by PGV Co., Ltd.), and to wait for 5 minutes at rest, and then asked to answer a questionnaire for one minute. Subsequently, each subject was instructed to ingest 200 mL of the test beverage within 5 minutes, and thereafter, to wait at rest except for answering the questionnaire for one minute immediately after the ingestion, 15 minutes after the ingestion, 30 minutes after the ingestion and 45 minutes after the ingestion. The EEG were measured from before the ingestion of the test beverage until 45 minutes after the ingestion. The same measurement was carried out one more time. The beverage to be ingested was selected at random for each subject, and each subject was instructed to ingest each beverage once.
# In the analysis of EEG, the data obtained during the questionnaires and the ingestion that affect the EEG were excluded from the analysis target. The EEG measured during each waiting time at rest before and after the ingestion were analyzed using the MNE library (ver. 1.3.0) in Python language, and the B/a ratio was calculated from the two-minute data. No exclusion of target data was allowed, and all cases were analyzed as the target.
# The test was carried out in the same manner as in Test Example 4, using a 10-ppm aqueous solution of each of: geraniol, which is the isomer of nerol; α-terpineol, which is a degradation product of nerol; and linalool, on 20 healthy Japanese men and women with ages ranging from 20 years old to 39 years old, as the subjects. As a result, the effect of enhancing activation was not observed in any of geraniol, α-terpineol and linalool.
# rats = settings: cited from earlier work
Compound,amount of brain blood flow (brain blood flow),effect of enhancing activation (EEG),"acceptable daily intake (ADI) per person (rats; calculated, assuming an adult with a body weight of 50 kg) [mg/person/day]",acceptable daily intake (ADI) (rats; calculated) [mg/kg/day],"no-observed adverse effect level (NOAEL), lowest value (rats; repeated dose toxicity study on rats) [mg/kg/day]"
CC(C)=CCC/C(C)=C/CO [geraniol],increased significantly,not observed,–,–,–
C=CC(C)(O)CCC=C(C)C (centres unmarked) [linalool],–,not observed,–,–,–
"CC(C)=CCC/C(C)=C\CO [nerol, (Z)-3,7-dimethyl-2,6-octadien-1-ol]",increased significantly,–,95.5,1.91,191
CC1=CCC(C(C)(C)O)CC1 (stereo not drawn) [α-terpineol],–,not observed,–,–,–

# Reference: US20260294838A1, “ACTIVATION ENHANCER AND FOOD AND DRINK FOR ENHANCING ACTIVATION” (Asahi Group Holdings, Ltd., priority 2023, published 2026)
